Experimental findings from ChEMBL document CHEMBL1201862, “PubChem BioAssay data set” (2004) are described below.

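Exposure lasted 48 hours, with cells grown in 96-well plates and compounds tested at five concentrations. GI50 is the concentration that inhibits growth by half.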 The source made the active and inactive calls. Rule as the data show it: active = GI50 up to about 1.1 µM and inactive = higher. A value given as a limit tells only on which side of the number the result lay.

Holding throughout (experiment): inhibition of tumour cell growth, NCI panel, 48 h
For assay [1], the system named is NCI-H522.
In assay [2] the test system is Malme-3M.
Assay [3] concerns ACHN.
The subject of assay [4] is OVCAR-5.
For assay [5], the system named is SR.
Assay [6] has as its system SNB-19.
For assay [7], the system named is SK-OV-3.
Assay [8] relates to K562.
In assay [9] the test system is SK-MEL-28.
The test system of assay [10] is HOP-62.
Assay [11] concerns EKVX.
For assay [12], the system named is OVCAR-8.
Assay [13] concerns SK-MEL-2.
For assay [14], the system named is SNB-75.
The subject of assay [15] is 786-0.
The subject of assay [16] is IGROV-1.
In assay [17] the test system is HCT-15.
The subject of assay [18] is HT-29.
Assay [19] relates to UACC-257.
Assay [20] concerns UO-31.

In the case of `CCCCCCCCCCC(C)CCCCCCC(=O)OCC(COP(=O)([O-])OCC[N+](C)(C)C)OC(=O)CCCCCCC(C)CCCCCCCCCC` (stereo not given), the GI50 in assay [1], in assay [2], in assay [3], in assay [4], in assay [5] and in [6] was > 100 µM (inactive) in each case. The GI50 in [7], in assay [8], in [9], in assay [10], in assay [11] and in assay [12] was > 100 µM (inactive) throughout. Also, the GI50 was > 100 µM (inactive) in assay [13]; > 100 µM (inactive) in [14]; > 100 µM (inactive) in [15]; > 100 µM (inactive) in assay [16]; > 100 µM in [17]; > 100 µM (inactive) in assay [18]. For the same molecule, the GI50 in assay [19] and in assay [20] was > 100 µM (inactive) each time.

Consider `COc1ccc(CCc2ccc(O)c(C(=O)O)c2)cc1OC`, for which the GI50 in assay [1], in assay [2], in [3], in assay [4], in assay [5] and in assay [6] was > 100 µM (inactive) in each case. Further, the GI50 is > 100 µM (inactive) in [7]; 59.7 µM (inactive) in [8]; > 100 µM (inactive) in assay [9]; > 100 µM (inactive) in assay [10]; > 100 µM (inactive) in [11]; > 100 µM (inactive) in [12]. For the same molecule, the GI50 in assay [13] was > 100 µM (inactive); in [14] it was 79.6 µM (inactive); in assay [15], > 100 µM (inactive); in assay [16], > 100 µM (inactive); in [17], 84.1 µM; in [18], > 100 µM (inactive). In addition, the GI50 in [19] and in assay [20] was > 100 µM (inactive) in each case.

Turning to `COc1ccc2c(Cc3c4ccccc4cc4ccccc34)cncc2c1O`, the GI50 in assay [1] was 0.698 µM (active); in assay [2], 5.86 µM (inactive); in [3], 2.14 µM (inactive); in assay [4] it was 13.5 µM (inactive); in assay [5] it was 0.21 µM (active); in [6], 2.08 µM (inactive). Further, the GI50 was 2.96 µM (inactive) in assay [7]; 0.655 µM (active) in assay [8]; 14.1 µM (inactive) in [9]; 4.11 µM (inactive) in assay [10]; 8.22 µM (inactive) in assay [11]; 1.1 µM (active) in [12]. For the same molecule, the GI50 in assay [13] is 2.87 µM (inactive); in assay [14], 3.9 µM (inactive); in assay [15], 4.21 µM (inactive); in assay [16], 2.92 µM (inactive); in assay [17], 1.15 µM; in assay [18], 14.2 µM (inactive). For the same molecule, the GI50 was 2.32 µM (inactive) in assay [19] and 4.4 µM (inactive) in assay [20].

Consider `CCN(CC)CCn1nc2c3c(c(NCCN)ccc31)Sc1cc(O)ccc1-2`, for which the GI50 in assay [1] was 0.175 µM (active); in assay [2] it was 1.07 µM (active); in assay [3], 0.579 µM (active); in assay [4] it was 1.56 µM (inactive); in assay [5], 0.201 µM (active); in assay [6], 0.611 µM (active). The GI50 is 1.25 µM (inactive) in assay [7]; 0.314 µM (active) in assay [8]; 1.38 µM (inactive) in assay [9]; 0.416 µM (active) in [10]; 1.4 µM (inactive) in assay [11]; 0.535 µM (active) in [12]. Besides, the GI50 in assay [13] was 1.28 µM (inactive); in assay [14], 0.813 µM (active); in [15], 0.741 µM (active); in [16] it was 0.505 µM (active); in assay [17], 3.03 µM; in assay [18], 0.507 µM (active). Moreover, the GI50 is 1.84 µM (inactive) in assay [19] and 12.3 µM (inactive) in [20].

`Cn1c(=O)c2nc3sc4c(n3c2n(C)c1=O)C(=O)c1ccccc1C4=O`: the GI50 in assay [1] was 11 µM (inactive); in [2], > 90.2 µM (inactive); in assay [3] it was > 32.4 µM (inactive); in assay [4], > 100 µM (inactive); in assay [5] it was 19.5 µM (inactive); in [6], > 44.1 µM (inactive). Moreover, the GI50 in [7] is > 47.5 µM (inactive); in assay [8], 63.2 µM (inactive); in [9], > 75 µM (inactive); in assay [10], > 38.9 µM (inactive); in assay [11], > 100 µM (inactive); in [12], > 58.6 µM (inactive). Further, the GI50 in assay [13] was > 55.5 µM (inactive); in assay [14], 14.7 µM (inactive); in [15] it was > 68.1 µM (inactive); in [16], > 54.3 µM (inactive); in assay [17], > 59.6 µM; in assay [18] it was 42.6 µM (inactive). Also, the GI50 is > 88.9 µM (inactive) in [19] and > 66.2 µM (inactive) in [20].

Consider `COc1ccc2nc3cc(Cl)ccc3c(NCCCCCC(=O)NC(COc3ccc4ccc5cccnc5c4n3)COc3ccc4ccc5cccnc5c4n3)c2c1`, for which the GI50 in [1] was 24.1 µM (inactive); in assay [2] it was 45.9 µM (inactive); in [3] it was 15.5 µM (inactive); in [4] it was 24.4 µM (inactive); in assay [5] it was 3.14 µM (inactive); in assay [6] it was 45.5 µM (inactive). The GI50 in assay [7] is 36.9 µM (inactive); in assay [8], 13.5 µM (inactive); in assay [9], 24.2 µM (inactive); in assay [10] it was > 100 µM (inactive); in [11], 24.8 µM (inactive); in [12] it was 41.2 µM (inactive). The GI50 is 25.3 µM (inactive) in assay [13]; 21 µM (inactive) in [14]; 15.4 µM (inactive) in [15]; 16.3 µM (inactive) in assay [16]; 35.3 µM in assay [17]; 27.9 µM (inactive) in [18]. Moreover, the GI50 is 21.7 µM (inactive) in assay [19] and 2.79 µM (inactive) in assay [20].

Regarding `COc1ccc(Nc2nc(N)c(C(=O)c3c[nH]c4ccccc34)s2)cc1`, the GI50 in assay [1] is 0.0302 µM (active); in assay [2], 3.44 µM (inactive); in assay [3], 5.12 µM (inactive); in [4], 3.13 µM (inactive); in assay [5], 0.0655 µM (active); in assay [6], 2.82 µM (inactive). In addition, the GI50 in [7] is 4.51 µM (inactive); in assay [8] it was 0.397 µM (active); in [9], 14.9 µM (inactive); in assay [10] it was 8.02 µM (inactive); in assay [11] it was 3.05 µM (inactive); in assay [12], 2.36 µM (inactive). Further, the GI50 in assay [13] is 3.98 µM (inactive); in assay [14] it was 1.57 µM (inactive); in assay [15], 2.15 µM (inactive); in assay [16] it was 1.13 µM (inactive); in assay [17], 0.433 µM; in [18], 0.583 µM (active). Besides, the GI50 is 7.85 µM (inactive) in [19] and 3.52 µM (inactive) in assay [20].

As to `Nn1c(S)nnc1COc1cccc(OCc2nnc(S)n2N)c1`, the GI50 in assay [1] is 65.3 µM (inactive); in assay [2] it was > 100 µM (inactive); in assay [3] it was > 100 µM (inactive); in [4], > 100 µM (inactive); in [5], 2.45 µM (inactive); in [6], > 100 µM (inactive). In addition, the GI50 in assay [7] is > 100 µM (inactive); in assay [8], 4.9 µM (inactive); in [9], > 100 µM (inactive); in [10] it was > 100 µM (inactive); in assay [11], > 100 µM (inactive); in assay [12], > 100 µM (inactive). In addition, the GI50 in [13] was > 100 µM (inactive); in assay [14], > 100 µM (inactive); in assay [15], 34.3 µM (inactive); in [16], > 100 µM (inactive); in [17], 58.7 µM; in assay [18], 43.7 µM (inactive). For the same molecule, the GI50 in assay [19] and in [20] was > 100 µM (inactive) throughout.

In the case of `Cc1ccc(S(=O)(=O)OCCOCCOCCOCCOCCOS(=O)(=O)c2ccc(C)cc2)cc1`, the GI50 in [1] is 23.7 µM (inactive); in [2] it was 73.6 µM (inactive); in assay [3] it was 36.6 µM (inactive); in [4], > 100 µM (inactive); in assay [5], 54.3 µM (inactive); in assay [6], > 100 µM (inactive). Moreover, the GI50 in [7] was > 100 µM (inactive); in assay [8], 31.7 µM (inactive); in assay [9], > 100 µM (inactive); in assay [10], 30.1 µM (inactive); in [11] it was 94.2 µM (inactive); in [12], 22.6 µM (inactive). Besides, the GI50 in assay [13] is 41.5 µM (inactive); in assay [14], > 100 µM (inactive); in assay [15], 62.8 µM (inactive); in assay [16], 79.8 µM (inactive); in assay [17] it was 55.6 µM; in assay [18], 28.3 µM (inactive). Further, the GI50 in [19] was 25 µM (inactive); in assay [20], 28.8 µM (inactive).

For the molecule `O=c1[nH]cnc2c(COCCCO)c[nH]c12`, the GI50 was > 100 µM (inactive) in assay [1]; > 100 µM (inactive) in [2]; > 100 µM (inactive) in [3]; 61.5 µM (inactive) in assay [4]; > 100 µM (inactive) in [5]; > 100 µM (inactive) in assay [6]. Further, the GI50 in assay [7], in assay [8], in assay [9], in assay [10], in assay [11] and in assay [12] was > 100 µM (inactive) throughout. The GI50 in [13] is > 100 µM (inactive); in [14], > 100 µM (inactive); in assay [15] it was > 100 µM (inactive); in [16] it was > 100 µM (inactive); in assay [17] it was > 100 µM; in assay [18] it was > 100 µM (inactive). The GI50 in [19] and in assay [20] was > 100 µM (inactive) throughout.
